Laboratory results: patent US9492453B2 (priority 2007, dated 2016)
Where two headings read alike, the source gives them in different places.

Columns and labels:
[1] = Human dose prediction (estimated human pharmacokinetic parameters); details: plasma; from rat and dog Vss corrected by Fu, human/Fu (rat or dog); read-out: Human Vss (Volume of Distribution at Steady State), estimated
PKB (Akt) = details: read-out: Cellular PKB Mean IC50; MDA-MB-468 cells, phosphorylation of Serine-9 of GSK-3β, 2 hours incubation
AKT1 (PKBα) = AKT1 (PKBα) (Homo sapiens (Human), UniProt P31749); details: read-out: In vitro PKBα Mean IC50, AKT1/PKBα active enzyme, Caliper LabChip LC3000
Sequence of AKT1 (PKBα) (P31749 whole entry): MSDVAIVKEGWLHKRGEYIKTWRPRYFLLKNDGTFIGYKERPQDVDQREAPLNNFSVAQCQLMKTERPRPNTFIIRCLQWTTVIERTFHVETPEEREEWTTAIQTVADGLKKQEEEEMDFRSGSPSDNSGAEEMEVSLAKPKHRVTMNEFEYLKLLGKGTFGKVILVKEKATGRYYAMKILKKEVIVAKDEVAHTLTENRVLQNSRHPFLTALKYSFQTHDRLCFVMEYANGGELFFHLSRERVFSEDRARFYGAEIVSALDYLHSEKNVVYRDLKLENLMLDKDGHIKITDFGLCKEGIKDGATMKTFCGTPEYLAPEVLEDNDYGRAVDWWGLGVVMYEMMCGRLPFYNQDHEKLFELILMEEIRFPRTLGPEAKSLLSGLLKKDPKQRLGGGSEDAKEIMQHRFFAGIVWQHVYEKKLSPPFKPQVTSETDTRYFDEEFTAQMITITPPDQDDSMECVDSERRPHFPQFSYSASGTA

SMILES | Vd [1] [L/kg] | IC50 (PKB (Akt)) [µM] | IC50 (AKT1 (PKBα)) [µM] | IC50 (AKT1 (PKBα); tested once only) [µM]
NC1(C(=O)N[C@@H](CCN2CCOCC2)c2ccc(Cl)cc2)CCN(c2ncnc3[nH]ccc23)CC1 [Example 51, 4-amino-N-[(1S)-1-(4-chlorophenyl)-3-morpholin-4-ylpropyl]-1-(7H-pyrrolo[2,3-d]pyrimidin-4-yl)piperidine-4-carboxamide] | – | 0.31 | 0.01 | –
NC1(C(=O)N[C@@H](CCN2CCNCC2)c2ccc(Cl)cc2)CCN(c2ncnc3[nH]ccc23)CC1 [Example 53, 4-amino-N-[(1S)-1-(4-chlorophenyl)-3-piperazin-1-ylpropyl]-1-(7H-pyrrolo[2,3-d]pyrimidin-4-yl)piperidine-4-carboxamide] | – | > 2.4 | 0.0063 | –
NC1(C(=O)NC(Cc2ncc[nH]2)c2ccc(Cl)cc2)CCN(c2ncnc3[nH]ccc23)CC1 (stereo not drawn) [Example 59, 4-amino-N-(1-(4-chlorophenyl)-2-(1H-imidazol-2-yl)ethyl)-1-(7H-pyrrolo[2,3-d]pyrimidin-4-yl)piperidine-4-carboxamide] | – | 0.84 | 0.0063 | –
Cc1cc(CC(NC(=O)C2(N)CCN(c3ncnc4[nH]ccc34)CC2)c2ccc(Cl)cc2)on1 (stereo not drawn) [Example 61, 4-amino-N-[1-(4-chlorophenyl)-2-(3-methylisoxazol-5-yl)ethyl]-1-(7H-pyrrolo[2,3-d]pyrimidin-4-yl)piperidine-4-carboxamide] | – | 0.85 | 0.023 | –
NC(=O)NCCC(NC(=O)C1(N)CCN(c2ncnc3[nH]ccc23)CC1)c1ccc(Cl)cc1 (stereo not drawn) [Example 67, 4-amino-N-(1-(4-chlorophenyl)-3-ureidopropyl)-1-(7H-pyrrolo[2,3-d]pyrimidin-4-yl)piperidine-4-carboxamide] | – | 0.89 | – | 0.0077
N#CCC(NC(=O)C1(N)CCN(c2ncnc3[nH]ccc23)CC1)c1ccc(Cl)cc1 (stereo not drawn) [Example 68, 4-amino-N-(1-(4-chlorophenyl)-2-cyanoethyl)-1-(7H-pyrrolo[2,3-d]pyrimidin-4-yl)piperidine-4-carboxamide] | – | 0.34 | 0.012 | –

The next lines start with the values.

Vd [1] [L/kg] | IC50 (PKB (Akt)) [µM] | IC50 (AKT1 (PKBα)) [µM] | IC50 (AKT1 (PKBα); tested once only) [µM] | SMILES
3.3 | – | – | – | NC1(C(=O)N[C@@H](CCO)c2ccc(Cl)cc2)CCN(c2ncnc3[nH]ccc23)CC1 [Example 9, (S)-4-amino-N-(1-(4-chlorophenyl)-3-hydroxypropyl)-1-(7H-pyrrolo[2,3-d]pyrimidin-4-yl)piperidine-4-carboxamide]
– | 0.18 | 0.0034 | – | NC1(C(=O)N[C@@H](CCn2ccnc2)c2ccc(Cl)cc2)CCN(c2ncnc3[nH]ccc23)CC1 [Example 54, 4-amino-N-[(1S)-1-(4-chlorophenyl)-3-(1H-imidazol-1-yl)propyl]-1-(7H-pyrrolo[2,3-d]pyrimidin-4-yl)piperidine-4-carboxamide]
– | 0.47 | 0.023 | – | NC1(C(=O)NC(Cn2cccn2)c2ccc(Cl)cc2)CCN(c2ncnc3[nH]ccc23)CC1 (stereo not drawn) [Example 60, 4-amino-N-[1-(4-chlorophenyl)-2-(1H-pyrazol-1-yl)ethyl]-1-(7H-pyrrolo[2,3-d]pyrimidin-4-yl)piperidine-4-carboxamide]
– | 0.56 | 0.028 | – | NC1(C(=O)NC(Cc2nccs2)c2ccc(Cl)cc2)CCN(c2ncnc3[nH]ccc23)CC1 (stereo not drawn) [Example 62, 4-amino-N-(1-(4-chlorophenyl)-2-(thiazol-2-yl)ethyl)-1-(7H-pyrrolo[2,3-d]pyrimidin-4-yl)piperidine-4-carboxamide]
– | 0.99 | – | 0.0066 | NC(=O)CC(NC(=O)C1(N)CCN(c2ncnc3[nH]ccc23)CC1)c1ccc(Cl)cc1 (stereo not drawn) [Example 66, 4-amino-N-(3-amino-1-(4-chlorophenyl)-3-oxopropyl)-1-(7H-pyrrolo[2,3-d]pyrimidin-4-yl)piperidine-4-carboxamide]
